One data set has as its target T1, classical ER, ERα (Homo sapiens, UniProt P03372).
T1 sequence (P03372 1-595): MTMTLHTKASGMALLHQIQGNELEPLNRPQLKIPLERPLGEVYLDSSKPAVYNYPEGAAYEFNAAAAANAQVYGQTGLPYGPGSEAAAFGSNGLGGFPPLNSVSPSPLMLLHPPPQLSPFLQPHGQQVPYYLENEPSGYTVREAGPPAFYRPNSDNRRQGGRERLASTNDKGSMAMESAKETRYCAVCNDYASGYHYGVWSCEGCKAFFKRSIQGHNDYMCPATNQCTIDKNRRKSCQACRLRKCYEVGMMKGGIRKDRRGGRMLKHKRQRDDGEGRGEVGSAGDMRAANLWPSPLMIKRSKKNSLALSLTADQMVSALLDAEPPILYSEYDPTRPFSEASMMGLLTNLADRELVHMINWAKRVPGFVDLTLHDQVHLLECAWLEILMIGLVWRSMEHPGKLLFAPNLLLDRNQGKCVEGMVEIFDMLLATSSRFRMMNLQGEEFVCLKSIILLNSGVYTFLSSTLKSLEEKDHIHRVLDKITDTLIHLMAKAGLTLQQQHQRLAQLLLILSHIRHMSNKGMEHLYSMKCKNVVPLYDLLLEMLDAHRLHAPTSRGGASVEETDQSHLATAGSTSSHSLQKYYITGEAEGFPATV
The conditions noted are these: previously reported; cited from earlier work.

The next data set deals with ERβ (Homo sapiens, UniProt Q92731). The conditions noted are these: previously reported; cited from earlier work.
ERβ, sequence (Q92731 whole entry, species assumed): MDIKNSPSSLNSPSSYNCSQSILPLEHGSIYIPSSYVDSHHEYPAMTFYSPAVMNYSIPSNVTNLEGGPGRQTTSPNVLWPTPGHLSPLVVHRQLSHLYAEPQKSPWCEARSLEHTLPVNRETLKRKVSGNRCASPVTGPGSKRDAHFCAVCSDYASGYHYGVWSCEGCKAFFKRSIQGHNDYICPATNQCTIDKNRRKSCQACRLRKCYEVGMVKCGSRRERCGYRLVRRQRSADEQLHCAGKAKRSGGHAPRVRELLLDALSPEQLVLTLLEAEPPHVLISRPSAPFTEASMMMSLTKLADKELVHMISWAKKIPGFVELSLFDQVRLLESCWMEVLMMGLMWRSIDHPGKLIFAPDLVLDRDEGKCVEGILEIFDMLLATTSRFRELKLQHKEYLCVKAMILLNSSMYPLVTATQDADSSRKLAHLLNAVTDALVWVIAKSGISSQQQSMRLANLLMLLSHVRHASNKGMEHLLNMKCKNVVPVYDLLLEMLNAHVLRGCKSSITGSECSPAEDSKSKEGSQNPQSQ
The subject of a further data set is human ERβ and ERα. Kind of data set: Competitive binding to human ERβ and ERα expressed in Escherichia coli lysates (ratio of RBAs). As to conditions: RBAs (E2 = 100) in E. coli lysates expressing human ERβ and ERα separately.
Data set [1] relates to ovariectomized mouse vagina (vaginal reductase activity). Kind of data set: In vivo local estrogenic assay (vaginal reductases). As for the experimental part: FIG. 3 depicts the results of in vivo local estrogenic assay (vaginal assay).
Controls were injected with vehicle. The next morning, 2,3,5-triphenyltetrazolium chloride was instilled in the vagina and thirty minutes later the animals were killed and the vaginal reductase activity was determined spectrophotometrically Panel a: the steroids were dissolved in 10 μL of 25% propylene glycol in saline. Panel b: the steroids were dissolved in 10 μL of sesame oil. n=5. Error bars are±S.D. *P<0.001 compared to the control.
In Vivo Estrogen Bioassays: Vaginal reductases. […] In some experiments as indicated, the method was modified by dissolving and injecting the estrogens in 10 μL of sesame oil. The next morning 0.5 mg of 2,3,5-triphenyltetrazolium chloride in 20 μL of saline was instilled in the vagina. Thirty minutes the animals were killed and the vaginas removed, washed thoroughly with saline and then blotted on filter paper. Each vagina was placed in a 12×75 mm test tube and extracted for 1 hour with ethanol/tetrachloroethylene (3:1). Afterwards, the solvent was removed and the formazan product in the organic extract was quantified at 500 nm. Each compound was assayed on at least 3 separate occasions with at least 5 replicates each time.

Data set [2] relates to alkaline phosphatase (AlkP) induction in Ishikawa cells. Kind of data set: Estrogenic potency in Ishikawa cells: induction of AlkP. The data set is classed as cell-based, human. As to conditions: for Ishikawa Cell AlkP RSA (relative stimulatory activity): induction of AlkP, E2 = 100, ± S.D. Here is the method: Estrogenic Potency in Ishikawa Cells. The estrogenic potency of the E2-analogs was determined in a estrogen bioassay, the induction of AlkP in human endometrial adenocarcinoma cells (Ishikawa) grown in 96-well microtiter plates as we have previously described.^28 In short, the cells are grown in phenol red free medium with estrogen depleted (charcoal stripped) bovine serum in the presence or absence of varying amounts of the steroids. […] After 3 days, the cells are washed, frozen and thawed, and then incubated with 5 mM p-nitrophenyl phosphate, a chromogenic substrate for the AlkP enzyme, at pH 9.8. To ensure linear enzymatic analysis, the plates are monitored kinetically for the for the production of p-nitrophenol at 405 nm. The relative stimulatory activity is determined by analysis of the curve fitting program Prism. Each compound was analyzed in at least 3 separate experiments performed in duplicate.

Data set [3] has as its target T2, ER in rat uterine cytosol (ERα) (Rattus norvegicus, UniProt P06211).
T2 construct: The uterus was removed and homogenized in ice-cold TEGDMo buffer; from tissue; host or cells: uterine cytosol of castrated female Sprague Dawley rats
T2 sequence (P06211 1-600): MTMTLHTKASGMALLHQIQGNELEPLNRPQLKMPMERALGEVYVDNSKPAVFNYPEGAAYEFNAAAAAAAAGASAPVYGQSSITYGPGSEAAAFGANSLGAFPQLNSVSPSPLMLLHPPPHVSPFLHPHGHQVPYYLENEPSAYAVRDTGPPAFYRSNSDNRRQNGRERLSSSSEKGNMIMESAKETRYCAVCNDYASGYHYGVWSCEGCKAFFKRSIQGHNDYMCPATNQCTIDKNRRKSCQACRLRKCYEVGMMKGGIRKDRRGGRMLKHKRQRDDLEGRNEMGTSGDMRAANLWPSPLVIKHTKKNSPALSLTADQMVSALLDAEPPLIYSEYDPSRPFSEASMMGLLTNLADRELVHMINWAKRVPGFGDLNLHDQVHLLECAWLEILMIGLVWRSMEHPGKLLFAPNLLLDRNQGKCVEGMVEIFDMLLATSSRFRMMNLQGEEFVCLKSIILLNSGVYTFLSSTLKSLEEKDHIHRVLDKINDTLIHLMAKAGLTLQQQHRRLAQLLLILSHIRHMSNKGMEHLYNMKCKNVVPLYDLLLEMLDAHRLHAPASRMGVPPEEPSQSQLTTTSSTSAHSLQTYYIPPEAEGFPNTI
Kind of data set: Competitive binding to the ER in rat uterine cytosol (RBA vs [3H]E2). The conditions noted are these: for ER RBA (relative binding affinity): rat uterine estrogen receptor assay, E2 = 100, ± S.D.; for RBA: uterine cytosol (ERα), relative to E2. Here is the method:
Competitive Binding to the Estrogen Receptor ERα and ERβ. […] The ER in uterine cytosol is ERα the classical form of the ER.^38 Female Sprague Dawley rats were castrated and sacrificed 24 h later. The uterus was removed and homogenized in ice-cold TEGDMo buffer (10 mM Tris, 1.5 mM Na2-EDTA, 10% (v/v) glycerol, 1.0 mM dithiothreitol, 25 mM sodium molybdate, pH 7.4 at 4° C.). and centrifuged at 105,000 g for 45 min at 4° C. The supernatant (cytosol) was frozen on dry ice and stored at −80° C. until assay. […] Incubations were carried out on ice overnight and bound radioactivity was separated from free by adsorption with dextran coated charcoal and quantified by counting.^26 Relative Binding Affinity (RBA) was determined by analysis of the displacement curves by the curve-fitting program Prism (Graph-Pad Software inc., San Diego, Calif.). The results shown in Table 1. below, are from at least 3 separate experiments performed in duplicate.

Data set [4] has as its system immature female rats (uterine weight). Kind of data set: In vivo systemic estrogenic assay (uterotrophic assay, uterine weight). Further details: species or system rat. Here is the method:
FIG. 2 depicts of the results of an in vivo systemic estrogenic assay (uterotrophic assay) as described in the experimental section. […] On the fourth day the animals were killed, the uteri removed and weighed. The total dose is shown. Controls were injected with sesame oil. Error bars are±S.D. n=5. *P<0.05, **P<0.001 when compared to the control.
In Vivo Estrogen Bioassays: Uterine Weight. […] Control animals received sesame oil. On the fourth day, the animals were killed, the uteri were removed, dissected, blotted and weighed. Each compound was assayed in 3 separate experiments with n=5.

The test system of data set [5] is esterase(s) in rat hepatic microsomes. Kind of data set: Esterase assay with rat hepatic microsomes. The data set is classed as in vitro ADME. As to conditions: rat hepatic microsomes; for Esterase RHA (relative hydrolytic activity): E16-1,2 = 100, ± S.D. Here is the method: Esterase. Esterase activity was measured in rat hepatic microsomes essentially using the conditions described.^39 Liver obtained from Sprague-Dawley rats was washed with phosphate buffered saline and homogenized in 3 volumes of cold 0.25 M sucrose and centrifuged at 700 g for 10 min and then at 10,000 g for 20 min. The resulting supernatant was centrifuged at 105,000 g for 60 min. The pellet was suspended in 0.1 M phosphate buffer pH 7.4 and washed by centrifugation at 105,000 g for 60 min. The washed pellet was suspended in 0.1 M Tris-HCl pH 8.0 at a concentration of ˜13 mg protein/ml and frozen at −80° C. For assay, the pellets were thawed and diluted with the same buffer. The incubation mixture consisted of the microsomal enzyme preparation, 0.28 mg protein/ml, E2-16α-alkyl esters, 50 μM, added in 10 μL of ethanol, all in a final volume of 1 mL of Tris buffer pH 8.0. Since the rates of reaction are widely different for the various esters, the incubation times were varied accordingly to obtain linear kinetics. At several appropriate time points, 100 μL aliquots were withdrawn and the reaction was quenched with 33 μL CH3CN, followed by a 33 μL of a solution of THF containing 1 […] of the internal standard, 6-ketoestradiol. The quenched aliquot was centrifuged for several minutes on bench-top centrifuge and 80 μl of the supernatant was analyzed for the esterase-hydrolysis product (the corresponding E2-16α-carboxylic acid: E16-1,0 8; E16-2,0 23; E16-3,0 35) by reversed phase HPLC with system H-10 for E2-16-1 and E2-16-2 esters, and with system H-15 for E2-16-3 esters. The E2-16α-carboxyl products, (Rt for E16-1,0 8=7 min and for E16-2,0 23=9 min, E16-3,0 35=6.5 min) and the internal standard, 6-ketoestradiol (Rt 7.5 min in system H-10, and 5 min in system H-15) were quantified at 280 nm on the HPLC UV detector. The UV absorbance was converted to moles of product by comparison to standard curves and corrected for recovery of the internal standard, 6-ketoestradiol. The velocity of the reaction for each ester, in nmol product/min/ml/ was then normalized to the ester, E16-1,2 10 and is shown in Table 1 as relative hydrolytic activity (RHA). The enzymatic velocity for the hydrolysis of E16-1,2 10 was 0.9±0.2 (S.D.) nmol product/min/ml over the various experiments. Since all of the esters could not be tested simultaneously, in each case we compared the rate of hydrolysis of the test compound to that of E16-1,2 10 run concurrently. All compounds were tested in triplicate in 3 separate experiments.

A short description of data set [6]: Stability on incubation with heat denatured enzyme under esterase assay conditions. The data set is classed as in vitro ADME. As to conditions: heat denatured (1 h at 80° C.) enzyme, 37° C. As for the experimental part: The various E2-16α-alkyl esters, including the reactive E16-1,2vin 15, were stable under the conditions used in the esterase assay. Each of the substrates was incubated with heat denatured (1 h at 80° C.) enzyme at 37° C. for periods that exceeded the incubation times of the enzyme assay. Only insignificant amounts of carboxyl products were formed from any of these esters during the incubations with denatured enzyme.

Here are results for three molecules from US6476012B2, “Estradiol-16α-carboxylic acid esters as locally active estrogens” (Yale University, priority 2001, dated 2002).

Counter-ions that a name gives are not always drawn.

In the case of `C[C@]12CC[C@@H]3c4ccc(O)cc4CC[C@H]3[C@@H]1C[C@@H](I)[C@@H]2O` [16α-iodoestradiol], the “binding to ERα” value at classical ER, ERα is listed as “binds with high affinity”. Also, at ERβ, the “binding to ERβ” value is “binds only poorly”.
Turning to `C[C@]12CC[C@@H]3c4ccc(O)cc4CC[C@H]3[C@@H]1C[C@@H](C(=O)OCCF)[C@@H]2O` [E16-1,2F1, 2′-Fluoroethyl (3,17β-dihydroxyestra-1,3,5(10)-trien-16α-yl) formate], the “ERα/ERβ (ratio of the RBAs)” value in the data set on human ERβ and ERα was 2,000. The “vaginal estrogenic effect” value in data set [1] (10 ng in sesame oil) is “consistent stimulation at 10 ng of E16-1,2F1, however, it was not statistically significant”. For the same molecule, in data set [1] (50 ng in sesame oil (FIG. 3b)), the “vaginal estrogenic effect” value is on record as “produced a significant estrogenic effect” and the “vaginal estrogenic effect expressed as equivalent dose of E2” value is given as about 20 pg. The “dose producing a statistically significant (P<0.001) stimulation of vaginal reductase” value in data set [1] (intravaginal single dose in 25% propylene glycol in saline (FIG. 3a)) was 100 ng. Further, the “RSA (estrogenic potency compared to E2)” value in data set [2] (Ishikawa AlkP) was 13%. Moreover, the “Ishikawa Cell AlkP RSA (relative stimulatory activity)” value in [2] amounted to 13 ± 5. For the same molecule, in [3], the “ER RBA (relative binding affinity)” value is 35 ± 3 and the RBA worked out at 35%. The “uterotrophic effect” value in [4] (100 μg total dose) is given as “did not produce a uterotrophic stimulation”. For the same molecule, in data set [4] (300 μg total dose), the “uterotrophic effect expressed as equivalent amount of E2” value is “less than 5 ng”. The “uterotrophic effect” value in [4] (300 μg total dose, other experiments (not shown)) is recorded as “small uterotrophic effect”. The “rate of cleavage relative to the non-fluorinated ester E16-1,2” value in [5] (esterase) is “about 4 times”. Also, the “Esterase RHA (relative hydrolytic activity)” value in data set [5] was found to be 420 ± 40.
For `C=COC(=O)[C@@H]1C[C@H]2[C@@H]3CCc4cc(O)ccc4[C@H]3CC[C@]2(C)[C@H]1O` [E16-1,2vin, Vinyl (3,17β-dihydroxyestran-1,3,5(10)-trien-16α-yl) formates], in data set [2], the “Ishikawa Cell AlkP RSA (relative stimulatory activity)” value came out at 0.4 ± 0.3. Further, in [3], the “ER RBA (relative binding affinity)” value came out at 6 ± 2 and the RBA is listed as 6%. In data set [5], the “Esterase RHA (relative hydrolytic activity)” value is given as 20,300 ± 5,500. Besides, in data set [6], the “stability under the conditions used in the esterase assay” value is reported as “stable”.
